Drawing on patent US9809574B2, “Isoindoline or isoquinoline compounds, a process for their preparation and pharmaceutical compositions containing them” (LES LABORATOIRES SERVIER, priority 2013, dated 2017), this text covers IC50 for 13 compounds.

Experiment [1] deals with RS4; 11 leukaemia cell line. Briefly: In vitro cytotoxicity, Microculture Tetrazolium Assay (MTT). As to conditions: Homo sapiens, 11 cells exposed for 48 hours. The format is cell-based. The procedure:
The cytotoxicity studies were carried out on the RS4; 11 leukaemia cell line and on H146 small Cell Lung Carcinoma cell line. The cells are distributed onto microplates and exposed to the test compounds for 48 hours. The cell viability is then quantified by a colorimetric assay, the Microculture Tetrazolium Assay (Cancer Res., 1987, 47, 939-942).

The target of another experiment is Bcl-2 protein (histag-Bcl-2, UniProtKB P10415) (Homo sapiens (Human), UniProt P10415). Briefly: Inhibition of Bcl-2 by the fluorescence polarisation technique. The format is binding. The note with it: fluorescence polarisation test; incubation for 2 hours; read-out: IC50 (nM) Bcl-2 FP. The text has this: For partial inhibitors, the percentage fluorescence polarisation inhibition for a given concentration of the test compound is indicated.
Sequence of Bcl-2 protein (P10415 whole entry): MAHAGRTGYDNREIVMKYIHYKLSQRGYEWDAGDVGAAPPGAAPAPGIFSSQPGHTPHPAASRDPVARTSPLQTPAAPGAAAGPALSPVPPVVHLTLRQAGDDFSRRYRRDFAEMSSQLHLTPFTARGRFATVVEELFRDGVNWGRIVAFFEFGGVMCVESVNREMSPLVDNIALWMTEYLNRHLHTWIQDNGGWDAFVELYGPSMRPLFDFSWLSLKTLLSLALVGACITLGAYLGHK

Regarding `C[C@@H]1Cc2ccccc2CN1C(=O)c1cc2c(cc1-c1cc(C(=O)N(C)c3ccc(O)cc3)c3n1CCCC3)CN(C(=O)CSc1ccccc1)C2` [Example 171, N-(4-Hydroxyphenyl)-N-methyl-3-{6-[(3R)-3-methyl-1,2,3,4-tetrahydroisoquinoline-2-carbonyl]-2-[2-(phenylsulfanyl)acetyl]-2,3-dihydro-1H-isoindol-5-yl}-5,6,7,8-tetrahydroindolizine-1-carboxamide], the IC50 (commonly the concentration at which inhibition is half-maximal) was 63 nM in experiment [1] and 5.1 nM at Bcl-2 protein.
In the same order, the values of `Cc1c(C(=O)N(C)c2ccc(O)cc2)cc(-c2cc3c(cc2C(=O)N2Cc4ccccc4C[C@H]2C)CN(C(=O)Cc2ccc4c(c2)OCO4)C3)n1C` [Example 172, 5-{2-[2-(2H-1,3-Benzodioxol-5-yl)acetyl]-6-[(3R)-3-methyl-1,2,3,4-tetrahydroisoquinoline-2-carbonyl]-2,3-dihydro-1H-isoindol-5-yl}-N-(4-hydroxyphenyl)-N,1,2-trimethyl-1H-pyrrole-3-carboxamide] are 28 nM and 3.4 nM.
`Cc1c(C(=O)N(C)c2ccc(O)cc2)cc(-c2cc3c(cc2C(=O)N2Cc4ccccc4C[C@H]2C)CN(C(=O)[C@@H](N)c2ccccc2)C3)n1C` [Example 173, 5-(2-[(2S)-2-Amino-2-phenylacetyl]-6-{[(3R)-3-methyl-3,4-dihydroisoquinolin-2(1H)-yl]carbonyl}-2,3-dihydro-1H-isoindol-5-yl)-N-(4-hydroxyphenyl)-N,1,2-trimethyl-1H-pyrrole-3-carboxamide]: the IC50 in experiment [1] was above 600 nM; at Bcl-2 protein it was 55 nM.
In the same order, the values of `Cc1c(C(=O)N(C)c2ccc(O)cc2)cc(-c2cc3c(cc2C(=O)N2Cc4ccccc4C[C@H]2C)CN(C(=O)[C@H](N)c2ccccc2)C3)n1C` [Example 174, 5-(2-[(2R)-2-Amino-2-phenylacetyl]-6-{[(3R)-3-methyl-3,4-dihydroisoquinolin-2(1H)-yl]carbonyl}-2,3-dihydro-1H-isoindol-5-yl)-N-(4-hydroxyphenyl)-N,1,2-trimethyl-1H-pyrrole-3-carboxamide] are 407 nM and 5.9 nM.
In the same order, the values of `Cc1c(C(=O)N(C)c2ccc(O)cc2)cc(-c2cc3c(cc2C(=O)N2Cc4ccccc4C[C@H]2C)CN(C(=O)[C@H](O)c2ccccc2)C3)n1C` [Example 175, N-(4-Hydroxyphenyl)-5-(2-[(2R)-2-hydroxy-2-phenylacetyl]-6-{[(3R)-3-methyl-3,4-dihydroisoquinolin-2(1H)-yl]carbonyl}-2,3-dihydro-1H-isoindol-5-yl)-N,1,2-trimethyl-1H-pyrrole-3-carboxamide] are 90 nM and 4.2 nM.
In the same order, the values of `CCN(C(=O)c1cc(-c2cc3c(cc2C(=O)N2Cc4ccccc4C[C@H]2CN2CCOCC2)CN(C(=O)Oc2ccccc2)CC3)n(C)c1C)c1ccc(O)cc1` [Example 185, Phenyl 6-{4-[ethyl(4-hydroxyphenyl)carbamoyl]-1,5-dimethyl-1H-pyrrol-2-yl}-7-[(3S)-3-(morpholin-4-ylmethyl)-1,2,3,4-tetrahydroisoquinoline-2-carbonyl]-1,2,3,4-tetrahydroisoquinoline-2-carboxylate] are 4.5 nM and 3.7 nM.
Regarding `CCCN(C(=O)c1cc(-c2cc3c(cc2C(=O)N2Cc4ccccc4C[C@H]2CN2CCOCC2)CN(C(=O)Oc2ccccc2)CC3)n(C)c1C)c1ccc(O)cc1` [Example 186, Phenyl 6-{4-[(4-hydroxyphenyl)(propyl)carbamoyl]-1,5-dimethyl-1H-pyrrol-2-yl}-7-[(3S)-3-(morpholin-4-ylmethyl)-1,2,3,4-tetrahydroisoquinoline-2-carbonyl]-1,2,3,4-tetrahydroisoquinoline-2-carboxylate], the values for the IC50 (in experiment [1]; on Bcl-2 protein) were 4.5 nM and 2.5 nM, respectively.
Take `CCCCN(C(=O)c1cc(-c2cc3c(cc2C(=O)N2Cc4ccccc4C[C@H]2CN2CCOCC2)CN(C(=O)Oc2ccccc2)CC3)n(C)c1C)c1ccc(O)cc1` [Example 187, Phenyl 6-{4-[butyl(4-hydroxyphenyl)carbamoyl]-1,5-dimethyl-1H-pyrrol-2-yl}-7-[(3S)-3-(morpholin-4-ylmethyl)-1,2,3,4-tetrahydroisoquinoline-2-carbonyl]-1,2,3,4-tetrahydroisoquinoline-2-carboxylate]: the IC50 turned out to be 4.6 nM in experiment [1] and 3 nM on Bcl-2 protein.
In the same order, the values of `CCCCN(CCCC)C(=O)c1cc(-c2cc3c(cc2C(=O)N2Cc4ccccc4C[C@H]2CN2CCOCC2)CN(C(=O)Oc2ccccc2)CC3)n(C)c1C` [Example 197, Phenyl 6-[4-(dibutylcarbamoyl)-1,5-dimethyl-1H-pyrrol-2-yl]-7-[(3S)-3-(morpholin-4-ylmethyl)-1,2,3,4-tetrahydroisoquinoline-2-carbonyl]-1,2,3,4-tetrahydroisoquinoline-2-carboxylate] are above 150 nM and 26 nM.
In the same order, the values of `Cc1c(C(=O)N(C)c2ccc(O)cc2)cc(-c2cc3c(cc2C(=O)N2Cc4ccccc4C[C@H]2CN(C)C)CN(C(=O)Oc2ccccc2)CC3)n1C` [Example 211, Phenyl 7-[(3S)-3-[(dimethylamino)methyl]-1,2,3,4-tetrahydroisoquinoline-2-carbonyl]-6-{4-[(4-hydroxyphenyl)(methyl)carbamoyl]-1,5-dimethyl-1H-pyrrol-2-yl}-1,2,3,4-tetrahydroisoquinoline-2-carboxylate] are 6.9 nM and 3.4 nM.
In the same order, the values of `Cc1c(C(=O)N(C)c2ccc(O)cc2)cc(-c2cc3c(cc2C(=O)N2Cc4ccccc4C[C@H]2CN2CCN(C)CC2)CN(C(=O)Oc2ccccc2)CC3)n1C` [Example 214, Phenyl 6-{4-[(4-hydroxyphenyl)(methyl)carbamoyl]-1,5-dimethyl-1H-pyrrol-2-yl}-7-[(3S)-3-[(4-methylpiperazin-1-yl)methyl]-1,2,3,4-tetrahydroisoquinoline-2-carbonyl]-1,2,3,4-tetrahydroisoquinoline-2-carboxylate] are 4.1 nM and 2.7 nM.
On to `Cc1c(C(=O)N(C)c2ccc(O)cc2)cc(-c2cc3c(cc2C(=O)N2Cc4ccccc4C[C@H]2CCN2CCOCC2)CN(C(=O)Oc2ccccc2)CC3)n1C` [Example 216, Phenyl 6-{4-[(4-hydroxyphenyl)(methyl)carbamoyl]-1,5-dimethyl-1H-pyrrol-2-yl}-7-[(3S)-3-[2-(morpholin-4-yl)ethyl]-1,2,3,4-tetrahydroisoquinoline-2-carbonyl]-1,2,3,4-tetrahydroisoquinoline-2-carboxylate], for which the IC50 in experiment [1] was determined as 2.9 nM; at Bcl-2 protein it was 2.4 nM.
For the compound `CCCCN(C(=O)c1cc(-c2cc3c(cc2C(=O)N2Cc4ccccc4C[C@H]2CN2CCOCC2)CN(C(=O)Cc2ccccc2)CC3)n(C)c1C)c1ccc(O)cc1` [Example 232, N-Butyl-N-(4-hydroxyphenyl)-1,2-dimethyl-5-{7-[(3S)-3-(morpholin-4-ylmethyl)-1,2,3,4-tetrahydroisoquinoline-2-carbonyl]-2-(2-phenylacetyl)-1,2,3,4-tetrahydroisoquinolin-6-yl}-1H-pyrrole-3-carboxamide], the IC50 is 11 nM in experiment [1] and 2.9 nM at Bcl-2 protein.
